Laboratory results from patent US7759345B2, “Antitumoral derivatives of ET-743” (priority 2001, dated 2010).
Read-outs that look alike come from different tables or passages of the source.

Tests used:
Assay type in all cases: cell-based
[1] = system: A-549; assay: Inhibition of cells growth by colorimetric assay (SRB), A-549; details: for GI50 / LC50 (concentration for 50% cell killing): Homo sapiens, A549, 48 h
Method in brief: (§1)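 48 h SRB cytotoxicity assay; compound range 10–10^−8 μg/ml; seeding 5×10^3 cells/well, 18 h pre-attachment; OD 490 nm; GI, TGI, LC from triplicate means ± SD.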

[2] = system: HT-29; assay: Inhibition of cells growth by colorimetric assay (SRB), HT-29; details: for GI50 / LC50 (concentration for 50% cell killing): Homo sapiens, HT-29, 48 h
Method in brief: as §1

[3] = system: HMEC1; assay: Inhibition of cells growth by colorimetric assay (SRB), HMEC1
Experimental: (§2) 2°.—Inhibition of Cells Growth by Colorimetric Assay.
(§3) A colorimetric type of assay, using sulforhodamine B (SRB) reaction has been adapted for a quantitative measurement of cell growth and viability [following the technique described by Philip Skehan, et al. (1990), New colorimetric cytotoxicity assay for anticancer drug screening, J. Natl. Cancer Inst., 82:1107-1112]
(§4) This form of the assay employs 96 well cell culture microplates of 9 mm diameter (Faircloth, 1988; Mosmann, 1983). Most of the cell lines are obtained from American Type Culture Collection (ATCC) derived from different human cancer types.
(§5) Cells are maintained in RPMI 1640 10% FBS, supplemented with 0.1 g/l penicillin and 0.1 g/l streptomycin sulfate and then incubated at 37° C., 5% CO2 and 98% humidity. For the experiments, cells were harvested from subconfluent cultures using trypsin and resuspended in fresh medium before plating.
(§6) Cells are seeded in 96 well microtiter plates, at 5×10^3 cells per well in aliquots of 195 μl medium, and they are allowed to attach to the plate surface by growing in drug free medium for 18 hours. Afterward, samples are added in aliquots of 5 μl in a ranging from 10 to 10^−8 μg/ml, dissolved in DMSO/EtOH/PBS (0.5:0.5:99). After 48 hours exposure, the antitumor effect are measured by the SRB methodology: cells are fixed by adding 50 μl of cold 50% (wt/vol) trichloroacetic acid (TCA) and incubating for 60 minutes at 4° C. Plates are washed with deionized water and dried. One hundred μl of SRB solution (0.4% wt/vol in 1% acetic acid) is added to each microtiter well and incubated for 10 minutes at room temperature. Unbound SRB is removed by washing with 1% acetic acid. Plates are air dried and bound stain is solubilized with Tris buffer. Optical densities are read on a automated spectrophotometric plate reader at a single wavelength of 490 nm.
(§7) The values for mean+/−SD of data from triplicate wells are calculated. Some parameters for cellular responses can be calculated: GI=growth inhibition, TGI=total growth inhibition (cytostatic effect) and LC=cell killing (cytotoxic effect).
(§8) Obtained results may predict the usefulness of a certain drug as a potential cancer treatment. For this technique, compounds which show GI50 values smaller than 10 μg/ml are selected to continue with further studies. GI50's data allow to predict that not only could a drug be cystostatic, but also it could have a potential in terms of tumor reduction.

[4] = system: K-562; assay: Inhibition of cells growth by colorimetric assay (SRB), K-562; details: SRB, 48 hours exposure; for GI50 / LC50 (50% cell killing): Homo sapiens, K562, 48 h
Experimental: as §2, §3, §4, §5, §6, §7, §8

[5] = system: SK-MEL-28; assay: Inhibition of cells growth by colorimetric assay (SRB), SK-MEL-28; details: SRB, 48 hours exposure; for GI50 / CC50: Homo sapiens, SK-MEL-28, 48 h
Experimental: as §2, §3, §4, §5, §6, §7, §8

[6] = system: LoVo; assay: Inhibition of cells growth by colorimetric assay (SRB), LoVo; details: SRB, 48 hours exposure; for GI50 / LC50 (concentration for 50% cell killing): Homo sapiens, LoVo, 48 h
Experimental: as §2, §3, §4, §5, §6, §7, §8

[7] = system: LoVo-Dox; assay: Inhibition of cells growth by colorimetric assay (SRB), LoVo-Dox; details: SRB, 48 hours exposure; for GI50 / CC50: Homo sapiens, 48 h
Experimental: as §2, §3, §4, §5, §6, §7, §8

[8] = system: DU-145; assay: Inhibition of cells growth by colorimetric assay (SRB), DU-145; details: SRB, 48 hours exposure; for GI50 / CC50: Homo sapiens, DU-145, 48 h
Experimental: as §2, §3, §4, §5, §6, §7, §8

[9] = system: SK-BR-3; assay: Inhibition of cells growth by colorimetric assay (SRB), SK-BR-3; details: SRB, 48 hours exposure
Experimental: as §2, §3, §4, §5, §6, §7, §8

[10] = system: IGROV-1; assay: Inhibition of cells growth by colorimetric assay (SRB), IGROV-1; details: SRB, 48 hours exposure; for GI50 / CC50: Homo sapiens, IGROV-1, 48 h
Experimental: as §2, §3, §4, §5, §6, §7, §8

[11] = system: IGROV-ET; assay: Inhibition of cells growth by colorimetric assay (SRB), IGROV-ET; details: SRB, 48 hours exposure; for GI50 / CC50: Homo sapiens, 48 h
Experimental: as §2, §3, §4, §5, §6, §7, §8

[12] = system: SK-OV-3; assay: Inhibition of cells growth by colorimetric assay (SRB), SK-OV-3; details: SRB, 48 hours exposure; for GI50 / LC50: Homo sapiens, SK-OV-3, 48 h
Experimental: as §2, §3, §4, §5, §6, §7, §8

[13] = system: PANC-1; assay: Inhibition of cells growth by colorimetric assay (SRB), PANC-1; details: SRB, 48 hours exposure; for GI50 / LC50 (concentration for 50% net cell kill): Homo sapiens, PANC-1, 48 h
Experimental: as §2, §3, §4, §5, §6, §7, §8

[14] = system: LNCaP; assay: Inhibition of cells growth by colorimetric assay (SRB), LNCaP; details: SRB, 48 hours exposure
Experimental: as §2, §3, §4, §5, §6, §7, §8

[15] = read-out: LC50 A-549, A-549, SRB, 48 hours exposure
[16] = read-out: LC50 HT-29, HT-29, SRB, 48 hours exposure

COc1cc2c(cc1OC(=O)OC(C)(C)C)CCN[C@]21CS[C@@H]2c3c(OC(C)=O)c(C)c4c(c3[C@H](COC1=O)N1C2[C@H]2c3c(cc(C)c(OC)c3OC(C)C)C[C@@H]([C@@H]1C#N)N2C)OCO4 (stereo partly drawn) [Compound 46]
TGI A-549 ([1]; A-549, SRB, 48 hours exposure): 4.06E-07
GI50 ([1]; read-out: GI50 A-549): 179 nM
LC50 (concentration for 50% cell killing) [1, 15]: 927 nM
TGI HT-29 ([2]; HT-29, SRB, 48 hours exposure): 1.95E-06
GI50 ([2]; read-out: GI50 HT-29): 398 nM
LC50 (concentration for 50% cell killing) [2, 16]: 11000 nM
TGI HMEC-1 ([3]; HMEC-1, SRB, 48 hours exposure): 5.18E-07
GI50 ([3]; Homo sapiens, HMEC-1, 48 h, read-out: GI50 HMEC-1): 152 nM
LC50 ([3]; Homo sapiens, HMEC-1, 48 h, read-out: LC50 HMEC-1, HMEC-1, SRB, 48 hours exposure): 11000 nM

COc1cc2c(cc1O)CCN[C@]21CS[C@@H]2c3c(OC(C)=O)c(C)c4c(c3[C@H](COC1=O)N1C2[C@H]2c3c(cc(C)c(OC)c3OC(C)C)C[C@@H]([C@@H]1C#N)N2C)OCO4 (stereo partly drawn) [Compound 48]
GI50 ([4]; K-562, read-out: GI50 K-562): 223 nM
LC50 (50% cell killing) ([4]; read-out: LC50 K-562, K-562): 1230 nM
TGI K-562 ([4]; K-562): 5.47E-07
TGI A-549 ([1]; A-549, SRB, 48 hours exposure): 7.50E-07
GI50 ([1]; A-549, SRB, 48 hours exposure, read-out: GI50 A-549): 272 nM
LC50 (concentration for 50% cell killing) [1, 15]: 3890 nM
GI50 ([5]; MEL-28, read-out: GI50 MEL-28): 1100 nM
CC50 ([5]; read-out: LC50 MEL-28, MEL-28): 7060 nM
TGI MEL-28 ([5]; MEL-28): 2.87E-06
TGI HT-29 ([2]; HT-29, SRB, 48 hours exposure): 1.23E-05
GI50 ([2]; HT-29, SRB, 48 hours exposure, read-out: GI50 HT-29): 1970 nM
LC50 (concentration for 50% cell killing) [2, 16]: 12300 nM
GI50 ([6]; LOVO, read-out: GI50 LOVO): 713 nM
LC50 (concentration for 50% cell killing) ([6]; read-out: LC50 LOVO, LOVO): 12300 nM
TGI LOVO ([6]; LOVO): 2.95E-06
GI50 ([7]; LOVO-DOX, read-out: GI50 LOVO-DOX): 790 nM
CC50 ([7]; read-out: LC50 LOVO-DOX, LOVO-DOX): 12300 nM
TGI LOVO-DOX ([7]; LOVO-DOX): 4.18E-06
TGI DU-145 ([8]; DU-145): 3.20E-06
GI50 ([8]; DU-145, read-out: GI50 DU-145): 614 nM
CC50 ([8]; read-out: LC50 DU-145, DU-145): 12300 nM
GI50 ([9]; Homo sapiens, SK-BR-3, 48 h, SK-BR3, read-out: GI50 SK-BR3): 443 nM
CC50 ([9]; Homo sapiens, SK-BR-3, 48 h, read-out: LC50 SK-BR3, SK-BR3): 6970 nM
TGI SK-BR3 ([9]; SK-BR3): 1.54E-06
GI50 ([10]; IGROV, read-out: GI50 IGROV): 439 nM
CC50 ([10]; read-out: LC50 IGROV, IGROV): 7980 nM
TGI IGROV ([10]; IGROV): 1.78E-06
GI50 ([11]; IGROV-ET, read-out: GI50 IGROV-ET): 678 nM
CC50 ([11]; read-out: LC50 IGROV-ET, IGROV-ET): 12300 nM
TGI IGROV-ET ([11]; IGROV-ET): 2.93E-06
GI50 ([12]; SK-OV3, read-out: GI50 SK-OV3): 614 nM
LC50 ([12]; read-out: LC50 SK-OV3, SK-OV3): 12300 nM
TGI SK-OV3 ([12]; SK-OV3): 3.40E-06
GI50 ([13]; PANC-1, read-out: GI50 PANC-1): 910 nM
LC50 (concentration for 50% net cell kill) ([13]; read-out: LC50 PANC-1, PANC-1): 12300 nM
TGI PANC-1 ([13]; PANC-1): 5.10E-06

COc1cc2c(cc1O)CCN[C@]21CS[C@@H]2c3c(OC(C)=O)c(C)c4c(c3[C@H](COC1=O)N1C2[C@H]2c3c(cc(C)c(OC)c3OC(C)C)C[C@@H]([C@@H]1O)N2C)OCO4 (stereo partly drawn) [Compound 102]
GI50 ([4]; K-562, read-out: K-562 GI50): 10.2 nM
LC50 (50% cell killing) ([4]; read-out: K-562 LC50, K-562): 126 nM
K-562 TGI ([4]; K-562): 4.35E-08
A-549 TGI ([1]; A-549, SRB, 48 hours exposure): 4.24E-07
GI50 ([1]; A-549, SRB, 48 hours exposure, read-out: A-549 GI50): 152 nM
LC50 (concentration for 50% cell killing) ([1]; read-out: A-549 LC50, A-549, SRB, 48 hours exposure): 1190 nM
GI50 ([5]; MEL-28, read-out: MEL-28 GI50): 37.9 nM
CC50 ([5]; read-out: MEL-28 LC50, MEL-28): 128 nM
MEL-28 TGI ([5]; MEL-28): 6.89E-08
HT-29 TGI ([2]; HT-29, SRB, 48 hours exposure): 2.19E-06
GI50 ([2]; HT-29, SRB, 48 hours exposure, read-out: HT-29 GI50): 87 nM
LC50 (concentration for 50% cell killing) ([2]; read-out: HT-29 LC50, HT-29, SRB, 48 hours exposure): 12400 nM
GI50 ([6]; LOVO, read-out: LOVO GI50): 69.8 nM
LC50 (concentration for 50% cell killing) ([6]; read-out: LOVO LC50, LOVO): 12400 nM
LOVO TGI ([6]; LOVO): 4.58E-07
GI50 ([7]; LOVO-DOX, read-out: LOVO-DOX GI50): 417 nM
CC50 ([7]; read-out: LOVO-DOX LC50, LOVO-DOX): 12400 nM
LOVO-DOX TGI ([7]; LOVO-DOX): 1.02E-06
DU-145 TGI ([8]; DU-145): 7.84E-08
GI50 ([8]; DU-145, read-out: DU-145 GI50): 39.8 nM
CC50 ([8]; read-out: DU-145 LC50, DU-145): 124 nM
GI50 ([14]; Homo sapiens, LNCaP, 48 h, read-out: LNCAP GI50, LNCAP): 17.5 nM
CC50 ([14]; Homo sapiens, LNCaP, 48 h, read-out: LNCAP LC50, LNCAP): 95.4 nM
LNCAP TGI ([14]; LNCAP): 4.09E-08
GI50 ([10]; IGROV, read-out: IGROV GI50): 35.3 nM
CC50 ([10]; read-out: IGROV LC50, IGROV): 134 nM
IGROV TGI ([10]; IGROV): 7.63E-08
GI50 ([11]; IGROV-ET, read-out: IGROV-ET GI50): 101 nM
CC50 ([11]; read-out: IGROV-ET LC50, IGROV-ET): 7810 nM
IGROV-ET TGI ([11]; IGROV-ET): 1.53E-06
GI50 ([12]; SK-OV3, read-out: SK-OV3 GI50): 41.3 nM
LC50 ([12]; read-out: SK-OV3 LC50, SK-OV3): 124 nM
SK-OV3 TGI ([12]; SK-OV3): 1.10E-07
GI50 ([13]; PANC-1, read-out: PANC-1 GI50): 55.4 nM
LC50 (concentration for 50% net cell kill) ([13]; read-out: PANC-1 LC50, PANC-1): 12400 nM
PANC-1 TGI ([13]; PANC-1): 1.39E-07
